Results published in patent publication US20230102840A1, “COMPOSITIONS AND METHODS RELATING TO COMBINATORIAL HYALURONIC ACID CONJUGATES” (PRESIDENT AND FELLOWS OF HARVARD COLLEGE, priority 2020, published 2023).
pIC50: −log10 of the molar value. Values after ≈ are worked out from the molar mass of the structure shown.

Key:
BMDM [1] = experiment: Viability of BMDM after 48 h treatment; type: cell-based
Method: Immune cells system as macrophages and dendritic cells are responsible for the initiation of immune responses, and are the prime target for immunostimulatory drugs. To verify that the HA-RES conjugate is not toxic for immune cells, BMDM were treated with increasing concentrations of RES or HA-RES for 48 h.
The inventors also tested the effect of BEX and its HA conjugate on the viability of BMDM by exposing them to increasing concentration ranging from (0.39-50 μM).

BMDM [2] = experiment: BMDM polarization (M1/M2 marker expression); type: cell-based; details: 48 hr, vs untreated cells
Method: To further elucidate the effect of HA-RES and HA-BEX and their combination on macrophage phenotyping the inventors studied their effect on macrophage polarization. BMDMs were treated with different concentrations of RES and HA-RES for 48 hr. (FIG. 6A)
The expression of several markers associated with M1 and M2 phenotypes was evaluated.

[3] = test system: B16F10-Luc melanoma cells; experiment: Cytotoxicity study on B16F10-Luc cells; type: cell-based; details: 48 h
Method: (§1) 5×10^3 B16F10-Luc cells were seeded in 96 well plates and allowed to adhere overnight. For establishment for a coculture, B16F10 cells were cocultured with BMDM at a ratio of 1:10 (5×10^3 B16F10: 5×10^4 BMDM per well). The next day, the media was aspirated and replaced with increasing concentration of the free drugs, combination and the HA-conjugates with equivalent free drug concentrations and cells were incubated with the drug solutions for 48 h after which the treatment was aspirated and replaced with 0.5% Xenolight-D-luciferin potassium salt solution in complete DMEM. Finally, cellular viability was assessed by reading the luminescence of the solution from each well after 5 min using BioTek plate reader. Untreated cells were used as controls.

[4] = test system: B16F10-Luc melanoma cells cocultured with BMDM; experiment: Cytotoxicity study, B16F10-Luc cocultured with BMDM; type: cell-based; details: coculture with BMDM; compared with B16F10 alone
Method: as §1

A431 cells = experiment: In vitro cytotoxicity on A431 cells; type: cell-based; details: Homo sapiens, A-431; 48 h, alamar blue
Method: A431 cells were cultured in DMEM media supplemented with 10% FBS, 1% Pen Strep. The cells were passaged 3-4 times prior to setting up the assay. […] Cells were cultured in a humidified incubator maintained at 37° C. and 5% C02 (Thermo scientific, USA). A431 Cells (5×10^3 in 100 ul in complete DMEM) were seeded in 96 well plates and allowed to adhere overnight. The next day, cell culture media was aspirated and replaced with the different treatments. The cells were incubated with the drug solutions for 48 hr after which the treatment was aspirated and replaced with 10% alamar blue (AB) solution in complete DMEM and incubated for an additional 3.5 h in the dark at 37° C. […] Finally, cellular viability was assessed by reading the florescence of the solution from each well at λex=560 nm and λem=590 nm. […] Baseline fluorescence levels from wells without cells were subtracted from each data (Dose response curves were fit to each drug and/or polymer drug conjugate with the median effect model^[28]. For combination treatment, synergy was quantified with the combination index^[29]

[5] = test system: primary human fibroblasts; experiment: Cell viability study in primary human fibroblasts; type: cell-based; details: increasing concentrations, 48 h, relative to the untreated control
Method: Primary human fibroblast (seeded at density 5,000 cells/well) and primary human keratinocytes (at density 2,000 cells/well) were used for the cytotoxicity studies in vitro. The culture media used for the keratinocytes was keratinocyte serum free medium supplemented with L-glutamine, EGF and BPE while that for fibroblasts was Dulbecco's Modified Eagle's Medium-high glucose supplemented with 2% penicillin/streptomycin and 5% FBS. Cells were incubated in a humidified incubator under 5% CO2 at 37° C. After 24 h, 50 μL of the media were withdrawn and replaced by 50 ul of increasing concentrations of each treatment reaching a final volume of 100 μL in the well. Cells were incubated for 48 h under standard cell culture conditions after which cell viability was assessed by AB assay as previously described.

[6] = background statement; cited from earlier work

| Structure (SMILES) | viability of BMDM (BMDM [1]; 50 uM) | viability of BMDM (BMDM [1]; all concentrations tested up to 25 uM (range 0.39-50 μM)) | expression of CD206 (M2 marker) (BMDM [2]) | pIC50 ([3]; Mus musculus, B16-F10, luminescence viability) | IC50 in the presence of MAC [4] | pIC50 (A431 cells) | viability of primary human dermal fibroblasts [5] | aqueous solubility [6] [µM] | viability of BMDM (BMDM [1]; increasing concentrations, 48 h, all concentrations tested) | cytotoxic effect on melanoma cells ([3]; B16F10-Luc alone) |
| --- | --- | --- | --- | --- | --- | --- | --- | --- | --- | --- |
| C=C(c1ccc(C(=O)O)cc1)c1cc2c(cc1C)C(C)(C)CCC2(C)C [BEX, Bexarotene] | significant decrease in the cells viability | didn't alter the viability | significant reduction | 4.60 | same IC50 | 4.22 | did not significantly affect the cell viability | ~10 (≈ 3.48 µg/mL) |  |  |
| CCOCc1nc2c(N)nc3ccccc3c2n1CC(C)(C)O [RES, Resiquimod] |  |  |  |  |  |  |  |  | marked increase in cell viability | negligible cytotoxic effect |
| O=C(CCCCCCC(=O)Nc1ccccc1)NO [VOR, Vorinostat] |  |  |  |  |  |  | did not significantly affect the cell viability |  |  |  |
